Patent US12252472B1, “Barbituric acid derivatives, their preparation and use thereof as leukocyte transmigration inhibitors and for treating inflammatory diseases, autoimmune diseases and cancer” (BAR-ILAN UNIVERSITY, priority 2017, dated 2025)
“Also recorded” adds a separate entry of the source.

Key:
Format in all cases: in vivo, mouse
[1] = tested on: C57BL/6J mice; test: Thioglycollate peritonitis model, leukocyte counting in peritoneal liquid
Protocol: C57BL/6J (The Jackson Laboratory) female mice were chosen for this experiment. The acute inflammation was induced by thioglycollate injection into the abdominal cavity as described by Hoover-Plow J. L. et al. (Strain and model dependent differences in inflammatory cell recruitment in mice. Inflammation Research, 2008. 57(10): p. 457-463).
Mice were injected intraperitoneally with 0.5 mL of 4% thioglycollate (Becton Dickinson, Cockeysville, MD) and after 6 or 72 hours corresponding to peak neutrophil (6 hours) and macrophage (72 hours) recruitment, peritoneal lavage fluid, and cells were harvested as previously described by Ploplis, V. A. et al. (Plasminogen deficiency differentially affects recruitment of inflammatory cell populations in mice. Blood, 1998. 91(6): p. 2005-2009). The number of neutrophils and macrophages (Tang, L. P. and J. W. Eaton, Fibrin (Ogen) Mediates Acute Inflammatory Responses to Biomaterials. Journal of Experimental Medicine, 1993. 178(6): p. 2147-2156) accumulating in the lavage were determined from the enzyme activity of myeloperoxidase for neutrophils (Himmelhoch, S. R., et al., Purification of myeloperoxidases from the bone marrow of the guinea pig. Biochemistry, 1969. 8(3): p. 914-21) and non-specific esterase for macrophage/monocytes (Torres, J. L., R. S. Rush, and A. R. Main, Physical and chemical characterization of a horse serum carboxylesterase. Arch Biochem Biophys, 1988. 267(1): p. 271-9).
After inducing the inflammation (peritonitis), compound of Formula 2 was injected at a concentration of 12.5 mg/kg (DMSO, 01% in PBS, IP), twice (one day after the other). The next day, mice were sacrificed and the peritoneal liquid was collected from the control and treated mice (n=3 for each group). Two assays were conducted for the estimation of the possible anti-inflammatory effect of compound of Formula 2: leukocyte counting (the total amount and the calculation of the percentage of different leukocyte fractions) and a flow cytometry.

[2] = tested on: C57BL/6J mice; test: Acute dextran sodium sulfate (DSS) induced colitis model
Protocol: The colitis was inducted by adding 1.5% DSS to the drinking water of female C57BL/6J (7-8 weeks old) mice for 5 consecutive days (days 0-4) for all animals in the experimental groups. On day 5, DSS containing water was changed for regular drinking water and treatment was initiated. The working suspension of the compound of Formula 2 was administrated at 15 mg/kg by IV, IP or SC injections at q3w regimen (administered 3 times per week) and at 30 mg/kg by PO at qd regimen (once daily). Treatment continued for 10 days and thereafter mice were euthanized.
Determination of individual body weight of animals was made prior to each dosing and the administered volume was adjusted accordingly. Additional body weights throughout the entire experimental period were taken on a daily bases. The severity of colitis Disease Activity Index (DAI) score was monitored daily according to the criteria shown in Table 3 and calculated as a sum of the weight loss score, the diarrheal score and the hematochezia score. Disease activity index (DAI) based on the methods reported by Friedman et al. (PNAS, 2009) was used.
Mice from all groups were euthanized with isoflurane 24 hours post last dose administration. Colon was collected from each mouse, filled with 4% buffered formalin and colon length was measured. Large intestines were fixed, embedded in paraffin, sections and H&E stained using modified Swiss roll technique. Histological Score evaluation was performed based on: inflammatory cells infiltration and tissue damage, in four compartments of the large intestine graded from 0 to 3.
For tissue damage, discrete lymphoepithelial lesions were scored as 1, mucosal erosions as 2, and extensive mucosal damage and/or extension through deeper structures of the bowel wall as 3. The length of ulceration was measured in mm. The two equally weighted subscores (cell infiltration and tissue damage) at each compartment of the intestine were added as a colitis severity score. Ordinary one-way ANOVA statistical analysis was performed.

[3] = tested on: C57BL/6J mice; test: High-fat-diet induced non-alcoholic fatty liver disease (NAFLD) model; conditions: 15 mg/kg SC or IP q3w; 30 mg/kg PO qd; 65 days
Protocol: Male C57BL/6J (Envigo, Israel) mice (3-4 weeks of age) were fed ad libitum a high fat, no high carbohydrate diet (modified Western diet, WD) with 42% kcal from fat and containing 0.1% cholesterol (Harlan TD.88137) with normal water (without high fructose-glucose solution) for […] prior to treatment initiation. Control mice were fed a standard chow diet (CD, Harlan TD.7012) with normal water (NW). Compound of Formula 2 was administrated on the 85th day of the high fat diet (15 mg/kg, for S.C and IP at q3w regiment; 30 mg/kg for PO at qd regiment) for 65 days. Mock treated (vehicle) control group was administrated with IP injections at the same volume and regiment as a corresponding treated group for 65 days. Body weight of animals was determined prior to the treatment initiation and the administered volume of the compound of Formula 2 was adjusted according to the body weight. All animals were euthanized 24 hours post last dose administration. At necropsy liver and mesenteric fat wet weights were determined. Liver and mesenteric fat were fixed with 4% buffered formalin, embedded in paraffin, sections and H&E stained. Steatohepatitis was defined by the presence of steatosis, inflammation and hepatocellular ballooning, as per the FLIP algorithm. The severity of steatosis, lobular inflammation and hepatocellular ballooning were scored using the NASH-Clinical Research Network (CRN) criteria. NAFLD activity score (NAS) was calculated by adding the scores of: steatosis (maximal score 3) is defined by more than 66% of hepatocytes containing fat droplets; lobular inflammation (maximal score 3) is defined by >4 foci/200 field; hepatocyte ballooning (maximal score 2) is defined by many cells/prominent ballooning. Ordinary one-way ANOVA statistical analysis was performed.

COC(=O)c1ccc(COc2c(C=C3C(=O)NC(=O)NC3=O)cccc2C(C)(C)C)cc1 [Formula 2, methyl 4-((2-(tert-butyl)-6-((2,4,6-trioxotetrahydropyrimidin-5(2H)-ylidene)methyl)phenoxy)methyl) benzoate]
amount of neutrophils and monocytes ([1]; 12.5 mg/kg IP, twice): not affected | increase of the amount of dendritic cells in the peritoneal liquid ([1]; 12.5 mg/kg IP, twice): 2.5 fold | reduction of the amount of lymphocytes in the peritoneal liquid ([1]; 12.5 mg/kg IP, twice): 85% | total amount of leukocytes in the abdominal liquid ([1]; 12.5 mg/kg IP, twice): not affected | White blood cell (WBC) counts of peritoneal fluids ([1]; FIG. 8 legend: 30 μM injected once on the third day, n=6): reduced | Disease Activity Index (DAI) score, PO treated mice ([2]; 30 mg/kg PO qd): maximal effect | colon length, amount by which control groups were shorter than treated groups ([2]; all treated groups vs control groups): approximately 2 cm | Disease Activity Index (DAI) score ([2]; all treated groups: 15 mg/kg IV, IP or SC q3w, 30 mg/kg PO qd, 10 days): significantly decreased | Weight loss score ([2]; treated groups vs control groups): significantly lower | stool formation that readily becomes paste on the anus ([2]; treated groups vs control mice): not detected | Histological score of large intestine ([2]; treated vs control mice): significantly lower | NAFLD activity score [3]: significant reduction; also recorded: therapeutic effect | mesenteric fat weight [3]: significant reduction; also recorded: decreased | mice body weight [3]: significant reduction | wet liver weight [3]: significant reduction; also recorded: decreased
